Experimental data taken from patent publication US6013647A, “Benzoxazinedione derivatives, method of producing them and uses thereof” (Gruenenthal GmbH, priority 1997, dated 2000).
Where a SMILES comes first, the peptide text is derived from it. [ ]: non-standard residue; d: D form. Orn(N5-OH,N5-Ac) = CC(=O)N(O)CCC[C@H](N)C(=O)O

How the values were obtained:
E. coli = conditions: literature; cited from earlier work
B. subtilis = conditions: literature; cited from earlier work
[1] = e.g. thalassaemia; cited from earlier work
E. coli AB 2847 = assay: Siderophore efficacy, growth promotion of indicator mutant (DIN 58 940); assay type: cell-based; conditions: test substances 5 μg/test plate
Excerpt: (§1) The promotion of growth can be ascertained after the addition of the test substances as external siderophores. In the indicator mutants, the synthesis of the respective siderophores, e.g. pyoverdin, pyochelin, enterobactin, aerobactin or yersiniabactin, or the biosynthesis of aromatic compounds, is blocked, or there is a lack of receptors for enterobactin, pyochelin or pyoverdin and for other important components for the bacterial transport of iron (e.g. the membrane proteins Cir, Fiu, FepA and the TonB protein also). Under conditions where there is a lack of iron, these mutants therefore cannot grow or can only grow in a very retarded manner. In particular, the following indicator mutants were used: Pseudomonas aeruginosa PAO 6609, K 407, E. coli AB 2847, Salmonella typhimurium enb-7, TA 2700, and Yersinia enterocolitica WAH 5030. The controls used were ferrioxamine E for the Pseudomonas strains, ferrioxamine G for the Salmonella strains, and ferrichrome for the E. coli strains. The test substances were each employed in an amount of 5 μg/test plate.

[2] = test system: Pseudomonas aeruginosa PAO 6609; assay: as above; assay type: cell-based; conditions: Pseud. aeruginosa PAO 6609; test substances 5 μg/test plate
Excerpt: as §1

[3] = test system: Salmonella typhimurium TA 2700; assay: as above; assay type: cell-based; conditions: Salmonella TA 2700; test substances 5 μg/test plate
Excerpt: as §1

[4] = test system: Salmonella typhimurium enb-7; assay: as above; assay type: cell-based; conditions: Salmonella enb-7; test substances 5 μg/test plate
Excerpt: as §1

[5] = test system: Yersinia enterocolitica WAH 5030; assay: as above; assay type: cell-based; conditions: Y. enterocol. WAH 5030; test substances 5 μg/test plate
Excerpt: as §1

Molecule | Growth areas (diameter) of siderophore indicator strain (E. coli AB 2847) [mm] | Growth areas (diameter) of siderophore indicator strain [2] [mm] | Growth areas (diameter) of siderophore indicator strain [3] [mm] | Growth areas (diameter) of siderophore indicator strain [4] [mm] | also measured
O=C(N[C@@H](CO)C(=O)O)c1cccc(O)c1O [N-(2,3-dihydroxybenzoyl)-L-serine] | – | – | – | – | siderophore activity (E. coli): effective as a siderophore
O=C(O)CNC(=O)c1cccc(O)c1O [N-(2,3-dihydroxybenzoyl)glycine] | – | – | – | – | siderophore activity (B. subtilis): siderophore for B. subtilis
CC(=O)N(O)CCCCCNC(=O)CCC(=O)N(O)CCCCCNC(=O)CCC(=O)N(O)CCCCCN [desferrioxamine B] | – | – | – | – | use in diseases caused by an excess of iron [1]: successfully used in diseases which are caused by an excess of iron
O=C(N[C@H]1COC(=O)[C@@H](NC(=O)c2cccc(O)c2O)COC(=O)[C@@H](NC(=O)c2cccc(O)c2O)COC1=O)c1cccc(O)c1O [enterobactin] | – | – | – | – | siderophore activity (E. coli): siderophore for E. coli
CC(=O)N([O-])CCC[C@@H]1NC(=O)CNC(=O)CNC(=O)CNC(=O)[C@H](CCCN([O-])C(C)=O)NC(=O)[C@H](CCCN([O-])C(C)=O)NC1=O.[Fe+3] [ferrichrome, reference compound] (cyclo(GGG[Orn(N5-OH,N5-Ac)][Orn(N5-OH,N5-Ac)][Orn(N5-OH,N5-Ac)])) | 23 | – | – | – | –
COC(=O)Oc1cccc2c(=O)n(CC(=O)O)c(=O)oc12 [substance 1, (8-methoxycarbonyloxy-2,4-dioxobenzoxazin-3-yl)-acetic acid] | 15 | 0 | 13 | 18 | –
COC(=O)Oc1cccc2c(=O)n(CC(=O)NCC(=O)O)c(=O)oc12 [substance 2, (8-methoxycarbonyloxy-2,4-dioxobenzoxazin-3-yl)-acetyl-glycine] | 10 | 13 | 21 | 22 | –
C[C@H](NC(=O)Cn1c(=O)oc2c(O)cccc2c1=O)C(=O)O [substance 4, (8-hydroxy-2,4-dioxobenzoxazin-3-yl)-acetyl-L-alanine] | 0 | 0 | 0 | 14 | –
COC(=O)Oc1cccc2c(=O)n([C@@H](C)C(=O)O)c(=O)oc12 [substance 7, 2-L-(8-methoxycarbonyloxy-2,4-dioxobenzoxazin-3-yl)-propionic acid] | 0 | 0 | 0 | 10 | –
COC(=O)Oc1cccc2c(=O)n(N=Cc3ccc(C(=O)O)cc3)c(=O)oc12 [substance 9, 4-[(8-methoxycarbonyloxy-2,4-dioxobenzoxazin-3-yl-imino)-methyl]-benzoic acid] | 24 | 0 | 16 | 0 | –
ferrioxamine E [reference compound] | – | 35 | – | – | Growth areas (diameter) of siderophore indicator strain [5]: 40 mm
ferrioxamine G [reference compound] | – | – | 20 | 38 | –
